In patent publication US11319299B2, “Substituted carboxamides as inhibitors of WDR5 protein-protein binding” (PROPELLON THERAPEUTICS INC., priority 2016, dated 2022) one finds Kd data, which are given here for 21 compounds.

The first assay deals with WDR5 (Homo sapiens (Human), UniProt P61964). The assay is described as follows: Surface Plasmon Resonance (SPR) assay, KD and residence time. The assay is classed as binding. The following applies: surface plasmon resonance (SPR) assay; read-out: WDR5 binding affinity (KD). The procedure: (i) Surface Plasmon Resonance (SPR) Assay
The lifetime of a drug on its target is determined by two rate constants: the association rate constant (kon) and the dissociation rate constant (koff). In principle, the lifetime of the binary drug—target complex is thus extended by a rapid rate of drug binding and/or a slow rate of drug—target complex dissociation. The in vivo lifetime of a drug-target complex is most critically dependent on the value of the koff [Nat. Rev. Drug Discov. […] Drug Discov. […] Drug-target residence time is defined as the reciprocal of koff (τ=1/koff), making the residence time a parameter that is easily measured by routine in vitro assay methods.
For the compound `CC1CN(c2cc(F)c(-c3ccc(N4CCN(C)CC4)nc3)cc2NC(=O)c2cn(C)c(=O)cc2C(F)(F)F)CCN1C` (stereo in doubt) [Example 301, N-[4-fluoro-5-[6-(4-methylpiperazin-1-yl)pyridin-3-yl]-2-[(3R)-3,4-dimethylpiperazin-1-yl]phenyl]-1-methyl-6-oxo-4-(trifluoromethyl)pyridine-3-carboxamide], the Kd came out at 5.26 nM.

For the compound `CC1CN(c2cc(F)c(-c3ccc(N4CCN(C)CC4)cc3)cc2NC(=O)c2cn(C)c(=O)cc2C(F)(F)F)CCN1C` (stereo in doubt) [Example 302, N-[4-fluoro-5-[4-(4-methylpiperazin-1-yl)phenyl]-2-[(3R)-3,4-dimethylpiperazin-1-yl]phenyl]-1-methyl-6-oxo-4-(trifluoromethyl)pyridine-3-carboxamide], the Kd stood at 5.37 nM.

For the compound `CC1CN(c2cc(F)c(-c3cnc(N4CCN(C)CC4)nc3)cc2NC(=O)c2ccc(F)cc2C(F)(F)F)CCN1C` (stereo in doubt) [Example 316, 4-fluoro-N-[4-fluoro-5-[2-(4-methylpiperazin-1-yl)pyrimidin-5-yl]-2-[(3R)-3,4-dimethylpiperazin-1-yl]phenyl]-2-(trifluoromethyl)benzamide], the Kd worked out at 0.989 nM.

`CC1CN(c2cc(F)c(-c3cnc(N4CC(C)(C)OC(C)(C)C4)nc3)cc2NC(=O)c2c[nH]c(=O)cc2C(F)(F)F)CCN1C` (stereo in doubt) [Example 319, N-[4-fluoro-2-[(3R)-3,4-dimethylpiperazin-1-yl]-5-[2-(2,2,6,6-tetramethylmorpholin-4-yl)pyrimidin-5-yl]phenyl]-6-oxo-4-(trifluoromethyl)-1H-pyridine-3-carboxamide]: the Kd came to 1.61 nM.

For the compound `CC1CN(c2cc(F)c(-c3ccc(N4CCOCC4)nc3)cc2NC(=O)c2c[nH]c(=O)cc2C(F)F)CCN1C` (stereo in doubt) [Example 331, 4-(difluoromethyl)-N-[4-fluoro-5-(6-morpholin-4-ylpyridin-3-yl)-2-[(3R)-3,4-dimethylpiperazin-1-yl]phenyl]-6-oxo-1H-pyridine-3-carboxamide], the Kd was found to be 2.01 nM.

As to `C[C@@H]1CN(c2cc(F)c(-c3cnc(N4CCOC[C@H]4C)nc3)cc2NC(=O)c2c[nH]c(=O)cc2C(F)(F)F)CCN1C` (stereo in doubt) [Example 337, N-[4-fluoro-2-[(3R)-3,4-dimethylpiperazin-1-yl]-5-[2-[(3R)-3-methylmorpholin-4-yl]pyrimidin-5-yl]phenyl]-6-oxo-4-(trifluoromethyl)-1H-pyridine-3-carboxamide], the Kd was found to be 1.16 nM.

In the case of `CC1COCCN1c1ncc(-c2cc(NC(=O)c3c[nH]c(=O)cc3C(F)(F)F)c(N3C[C@@H](C)N(C)[C@@H](C)C3)cc2F)cn1` (stereo in doubt) [Example 338, N-[4-fluoro-5-[2-[(3R)-3-methylmorpholin-4-yl]pyrimidin-5-yl]-2-[(3S,5R)-3,4,5-trimethylpiperazin-1-yl]phenyl]-6-oxo-4-(trifluoromethyl)-1H-pyridine-3-carboxamide], the Kd stood at 2.08 nM.

For the compound `CC(C)[C@@H]1CN(c2ncc(-c3cc(NC(=O)c4c[nH]c(=O)cc4C(F)(F)F)c(N4CCN(C)[C@H](C)C4)cc3F)cn2)CCO1` (stereo in doubt) [Example 347, N-[4-fluoro-2-[(3R)-3,4-dimethylpiperazin-1-yl]-5-[2-[(2R)-2-propan-2-ylmorpholin-4-yl]pyrimidin-5-yl]phenyl]-6-oxo-4-(trifluoromethyl)-1H-pyridine-3-carboxamide], the Kd amounted to 0.606 nM.

`CC1CN(c2cc(F)c(-c3cnc(N4CCOC(C)(C)C4)nc3)cc2NC(=O)c2c[nH]c(=O)cc2C(F)(F)F)CCN1C` (stereo in doubt) [Example 349, N-[5-[2-(2,2-dimethylmorpholin-4-yl)pyrimidin-5-yl]-4-fluoro-2-[(3R)-3,4-dimethylpiperazin-1-yl]phenyl]-6-oxo-4-(trifluoromethyl)-1H-pyridine-3-carboxamide]: the dissociation constant Kd was found to be 2.35 nM.

As to `C[C@@H]1CN(c2ncc(-c3cc(NC(=O)c4c[nH]c(=O)cc4C(F)(F)F)c(N4C[C@@H](C)N(C)[C@H](C)C4)cc3F)cn2)C[C@H](C)O1` (stereo in doubt) [Example 356, N-[4-fluoro-5-[2-[(2R,6S)-2,6-dimethylmorpholin-4-yl]pyrimidin-5-yl]-2-[(3R,5R)-3,4,5-trimethylpiperazin-1-yl]phenyl]-6-oxo-4-(trifluoromethyl)-1H-pyridine-3-carboxamide], the dissociation constant (Kd) amounted to 19.9 nM.

In the case of `C[C@@H]1CN(c2cc(F)c(-c3ccc(N4CCOCC4)c(F)c3)cc2NC(=O)c2c[nH]c(=O)cc2C(F)(F)F)C[C@@H](C)N1C` (stereo in doubt) [Example 357, N-[4-fluoro-5-(3-fluoro-4-morpholin-4-ylphenyl)-2-[(3R,5R)-3,4,5-trimethylpiperazin-1-yl]phenyl]-6-oxo-4-(trifluoromethyl)-1H-pyridine-3-carboxamide], the Kd was determined as 133 nM.

Consider `C[C@@H]1CN(c2cc(F)c(-c3cnc(N(C)[C@@H]4CCOC4)nc3)cc2NC(=O)c2c[nH]c(=O)cc2C(F)(F)F)CCN1C` (stereo in doubt) [Example 362, N-[4-fluoro-5-[2-[methyl-[(3R)-oxolan-3-yl]amino]pyrimidin-5-yl]-2-[(3R)-3,4-dimethylpiperazin-1-yl]phenyl]-6-oxo-4-(trifluoromethyl)-1H-pyridine-3-carboxamide], for which the Kd came to 0.244 nM.

In the case of `C[C@@H]1CN(c2cc(F)c(-c3cnc(N(C)C4CCOC4)nc3)cc2NC(=O)c2c[nH]c(=O)cc2C(F)(F)F)C[C@H](C)N1C` (stereo in doubt) [Example 363, N-[4-fluoro-5-[2-[methyl-[(3R)-oxolan-3-yl]amino]pyrimidin-5-yl]-2-[(3S,5R)-3,4,5-trimethylpiperazin-1-yl]phenyl]-6-oxo-4-(trifluoromethyl)-1H-pyridine-3-carboxamide], the dissociation constant (Kd) worked out at 0.634 nM.

For `CC1CN(c2cc(F)c(-c3cnc(N(C)C4CCOCC4)nc3)cc2NC(=O)c2c[nH]c(=O)cc2C(F)(F)F)CCN1C` (stereo in doubt) [Example 370, N-[4-fluoro-5-[2-[methyl(oxan-4-yl)amino]pyrimidin-5-yl]-2-[(3R)-3,4-dimethylpiperazin-1-yl]phenyl]-6-oxo-4-(trifluoromethyl)-1H-pyridine-3-carboxamide], the equilibrium dissociation constant (Kd) was found to be 0.866 nM.

As to `C[C@@H]1CN(c2ncc(-c3cc(NC(=O)c4c[nH]c(=O)cc4C(F)(F)F)c(N4CCN(C)[C@H](C)C4)cc3F)cn2)CCO1` (stereo in doubt) [Example 389, N-[4-fluoro-2-[(3R)-3,4-dimethylpiperazin-1-yl]-5-[2-[(2R)-2-methylmorpholin-4-yl]pyrimidin-5-yl]phenyl]-6-oxo-4-(trifluoromethyl)-1H-pyridine-3-carboxamide], the equilibrium dissociation constant (Kd) was determined as 0.522 nM.

For `CC1CN(c2ncc(-c3cc(NC(=O)c4c[nH]c(=O)cc4C(F)(F)F)c(N4C[C@@H](C)N(C)[C@@H](C)C4)cc3F)cn2)CCO1` (stereo in doubt) [Example 390, N-[4-fluoro-5-[2-[(2R)-2-methylmorpholin-4-yl]pyrimidin-5-yl]-2-[(3S,5R)-3,4,5-trimethylpiperazin-1-yl]phenyl]-6-oxo-4-(trifluoromethyl)-1H-pyridine-3-carboxamide], the equilibrium dissociation constant (Kd) stood at 0.634 nM.

The assay is the same for the next values; noted with them: surface plasmon resonance (SPR); read-out: WDR5 binding affinity (KD).
`CC1CN(c2ncc(-c3cc(NC(=O)c4c[nH]c(=O)cc4C(F)F)c(N4C[C@@H](C)N(C)[C@@H](C)C4)cc3F)cn2)CCO1` (stereo in doubt) [Example 397, 4-(difluoromethyl)-N-[4-fluoro-5-[2-[(2R)-2-methylmorpholin-4-yl]pyrimidin-5-yl]-2-[(3S,5R)-3,4,5-trimethylpiperazin-1-yl]phenyl]-6-oxo-1H-pyridine-3-carboxamide]: the equilibrium dissociation constant (Kd) was 0.68 nM.

In the case of `C[C@@H]1CN(c2ncc(-c3cc(NC(=O)c4c[nH]c(=O)cc4C(F)(F)F)c(N4CCC(N(C)C)C4)cc3F)cn2)C[C@H](C)O1` (stereo in doubt) [Example 417, N-[4-fluoro-2-[(3S)-3-(dimethylamino)pyrrolidin-1-yl]-5-[2-[(2R,6S)-2,6-dimethylmorpholin-4-yl]pyrimidin-5-yl]phenyl]-6-oxo-4-(trifluoromethyl)-1H-pyridine-3-carboxamide], the Kd came to 1.41 nM.

Regarding `CC1CN(c2cc(F)c(-c3ccc(N4C[C@@H](C)O[C@@H](C)C4)nc3)cc2NC(=O)c2ccc(F)cc2C(F)(F)F)CCN1C` (stereo in doubt) [Example 423, 4-fluoro-N-[4-fluoro-5-[6-[(2R,6S)-2,6-dimethylmorpholin-4-yl]pyridin-3-yl]-2-[(3R)-3,4-dimethylpiperazin-1-yl]phenyl]-2-(trifluoromethyl)benzamide], the Kd was found to be 1.93 nM.

For `CC1CN(c2cc(F)c(-c3cnc(N4CCC(C)(O)CC4)nc3)cc2NC(=O)c2c[nH]c(=O)cc2C(F)(F)F)CCN1C` (stereo in doubt) [Example 424, N-[4-fluoro-5-[2-(4-hydroxy-4-methylpiperidin-1-yl)pyrimidin-5-yl]-2-[(3R)-3,4-dimethylpiperazin-1-yl]phenyl]-6-oxo-4-(trifluoromethyl)-1H-pyridine-3-carboxamide], the Kd came to 0.609 nM.

For `C[C@@H]1CN(c2ccc(-c3cc(NC(=O)c4c[nH]c(=O)cc4C(F)(F)F)c(N4CCN(C)[C@H](C)C4)cc3F)cn2)CCO1` (stereo in doubt) [Example 433, N-[4-fluoro-2-[(3R)-3,4-dimethylpiperazin-1-yl]-5-[6-[(2R)-2-methylmorpholin-4-yl]pyridin-3-yl]phenyl]-6-oxo-4-(trifluoromethyl)-1H-pyridine-3-carboxamide], the equilibrium dissociation constant (Kd) is 2.84 nM.
